Source: patent publication US20260224524A1, “A PHARMACEUTICAL COMPOSITION TARGETING MUTANT P53 AND HER2” (DR DOZO LABORATORIES, priority 2023, published 2026)

What was measured:
[1] = Human tumour xenograft MDA-MB-231 model, animal body weight; assay type: in vivo, mice; details: for Animal Body Weight: Group B, 2.5 mg/kg i.v. day 1, 5, 9
Procedure: (§1) The therapeutic effect of SACC is evaluated against triple-negative breast cancer cell line MDA-MB-231 by analysing tumour volume and relative tumour volume. The study involved the use of six mice. These mice were administrated treatment according to the following Groups: […]

[2] = Human tumour xenograft MDA-MB-231 model, survival; assay type: in vivo; details: for % Survival: Group B, 2.5 mg/kg i.v. day 1, 5, 9
Procedure: as §1

[3] = system: Human Breast Cancer Cell Line MDA-MB-231; test: Growth inhibition (% control growth, LC50, TGI, GI50) MDA-MB-231; assay type: cell-based
Procedure: The therapeutic effect of […] (peak 5) and SA2 (peak 4) is evaluated against human […] cancer cell line MDA-MB-231 by calculating the percentage growth inhibition, drug concentration of test compound needed to inhibit cell growth by 50% (GI50) values.
The therapeutic effect of SACC is evaluated against human […] cancer cell lines MDA-MB-231 by calculating the percentage growth inhibition, drug concentration of test compound needed to inhibit cell growth by 50% (GI50) values.

SMILES: COc1cccc2c1C(=O)c1c(O)c3c(c(O)c1C2=O)C[C@@](O)(C(=O)CO)C[C@@H]3O[C@H]1C[C@H](N)[C@H](O)[C@H](C)O1 [ADR, Adriamycin]
- Animal Body Weight ([1]; day 1): 20.9 Grams
- Animal Body Weight ([1]; day 5): 19.9 Grams
- Animal Body Weight ([1]; day 9): 20.3 Grams
- Animal Body Weight ([1]; day 12): 20.1 Grams
- Animal Body Weight ([1]; day 15): 19.5 Grams
- Animal Body Weight ([1]; day 18): 20.4 Grams
- Animal Body Weight ([1]; day 21): 20.0 Grams
- Animal Body Weight ([1]; day 25): 20.2 Grams
- Animal Body Weight ([1]; day 30): 21.6 Grams
- change in body weight (in words) ([1]; average body weight over 30 days): minimal change in body weight
- % Survival ([2]; day 1): 100%
- % Survival ([2]; day 5): 100%
- % Survival ([2]; day 9): 100%
- % Survival ([2]; day 12): 100%
- % Survival ([2]; day 15): 100%
- % Survival ([2]; day 18): 100%
- % Survival ([2]; day 21): 100%
- % Survival ([2]; day 25): 100%
- % Survival ([2]; day 30): 83%
- survival rate ([2]; till 25 days): 100%
- % Control Growth ([3]; 10 μg/ml, Average Values): −88.7%
- % Control Growth ([3]; 10 μg/ml, Experiment 1): −90.5%
- % Control Growth ([3]; 10 μg/ml, Experiment 3): −86.3%
- % Control Growth ([3]; 20 μg/ml, Average Values): −83.1%
- % Control Growth ([3]; 20 μg/ml, Experiment 2): −84.8%
- % Control Growth ([3]; 20 μg/ml, Experiment 3): −79.3%
- % Control Growth ([3]; 40 μg/ml, Average Values): −81.2%
- % Control Growth ([3]; 40 μg/ml, Experiment 2): −82.5%
- % Control Growth ([3]; 40 μg/ml, Experiment 3): −80.2%
- % Control Growth ([3]; 80 μg/ml, Average Values): −74.8%
- % Control Growth ([3]; 80 μg/ml, Experiment 1): −75.2%
- % Control Growth ([3]; 80 μg/ml, Experiment 2): −78.1%
- % Control Growth ([3]; 10^−4M, Average Values): −69.1%
- % Control Growth ([3]; 10^−4M, Experiment 1): −68.3%
- % Control Growth ([3]; 10^−4M, Experiment 2): −69.6%
- % Control Growth ([3]; 10^−4M, Experiment 3): −69.4%
- % Control Growth ([3]; 10^−5M, Average Values): −82.4%
- % Control Growth ([3]; 10^−5M, Experiment 1): −80.5%
- % Control Growth ([3]; 10^−5M, Experiment 2): −83.4%
- % Control Growth ([3]; 10^−5M, Experiment 3): −83.3%
- % Control Growth ([3]; 10^−6M, Average Values): −85.0%
- % Control Growth ([3]; 10^−6M, Experiment 1): −83.1%
- % Control Growth ([3]; 10^−6M, Experiment 2): −86.2%
- % Control Growth ([3]; 10^−6M, Experiment 3): −85.8%
- % Control Growth ([3]; 10^−7M, Average Values): −87.8%
- % Control Growth ([3]; 10^−7M, Experiment 1): −82.8%
- % Control Growth ([3]; 10^−7M, Experiment 2): −91.0%
- % Control Growth ([3]; 10^−7M, Experiment 3): −89.6%
- GI50 ([3]; Homo sapiens, calculated from graph): < 10 µg/mL
- TGI ([3]; calculated from graph): <10 µg/mL
